The values that follow come from ChEMBL document CHEMBL1201862, “PubChem BioAssay data set” (2004).

Common to all, as to assay: NCI anticancer screen, dose series, 48 h
In assay [1] the test system is A498.
Assay [2] has as its system BT-549.
Assay [3] concerns HCT-116.
For assay [4], the system named is HCT-15.
The subject of assay [5] is HOP-62.
Assay [6] deals with M14.
Assay [7] concerns MCF7.
The subject of assay [8] is MDA-MB-435.
Assay [9] deals with MOLT-4.
Assay [10] deals with Malme-3M.
Assay [11] relates to NCI-H460.
Assay [12] relates to SF-268.
For assay [13], the system named is SK-MEL-28.
Assay [14] concerns SK-MEL-5.
Assay [15] deals with SK-OV-3.
The subject of assay [16] is SNB-19.
Assay [17] concerns SNB-75.
Assay [18] deals with SR.
Assay [19] concerns T47D.
The test system of assay [20] is HL-60.

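Five compound concentrations were applied to cells in 96-well plates for 48 hours; endpoints were derived by simple linear interpolation of the resulting dose-response curve. GI50 marks 50% less growth.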 Active and inactive are the calls of the source. Cut-off read from the data, not from the text of the source: active = GI50 up to about 1.1 µM and inactive = higher.

Regarding `C/C(=N\Nc1nc2ccccc2s1)c1cc2ccccc2cn1`, the GI50 was 10.9 µM (inactive) in [1]; 6.05 µM (inactive) in [2]; 3.03 µM (inactive) in assay [3]; 0.424 µM in assay [4]; 3.2 µM (inactive) in assay [5]; 4.01 µM (inactive) in assay [6]. The GI50 was 0.27 µM (active) in assay [7]; 5.24 µM (inactive) in assay [8]; 0.41 µM (active) in assay [9]; 4.61 µM (inactive) in assay [10]; 3.56 µM (inactive) in [11]; 7.43 µM (inactive) in assay [12]. In addition, the GI50 in assay [13] is 6.3 µM (inactive); in assay [14], 3.18 µM (inactive); in assay [15], 3.15 µM (inactive); in [16], 13.6 µM (inactive); in [17], 3.24 µM (inactive); in [18], 2.41 µM (inactive). Moreover, the GI50 in assay [19] is 0.378 µM (active).

`C/C=C/C[C@@H](C)C(=O)C1C(=O)N[C@@H](C(C)C)C(=O)N(C)CC(=O)N(C)[C@@H](CC(C)C)C(=O)N[C@@H](C(C)C)C(=O)N(C)[C@@H](CC(C)C)C(=O)N[C@@H](C)C(=O)N[C@@H](C)C(=O)N(C)[C@@H](CC(C)C)C(=O)N(C)[C@@H](CC(C)C)C(=O)N(C)[C@@H](C(C)C)C(=O)N1C` (stereo partly drawn): the GI50 in assay [2] was 4.98 µM (inactive); in [3], 3.03 µM (inactive); in assay [4] it was 5.51 µM; in [20] it was 2.8 µM (inactive); in assay [5], 6.47 µM (inactive); in assay [6], 6.28 µM (inactive). For the same molecule, the GI50 in [7] is 3.95 µM (inactive); in assay [8], 3.35 µM (inactive); in assay [9], 2.35 µM (inactive); in assay [11] it was 6.01 µM (inactive); in [12], 7.89 µM (inactive); in assay [13], 6.37 µM (inactive). Further, the GI50 in [14] is 2.99 µM (inactive); in assay [15] it was > 20.5 µM (inactive); in [16], 14 µM (inactive); in assay [17] it was 4.98 µM (inactive); in [18] it was 4.07 µM (inactive); in assay [19] it was 3.03 µM (inactive).

Take `C/C(=C\CO)CC/C=C(\C)CNc1ccc([N+](=O)[O-])cc1`: the GI50 was 10.1 µM (inactive) in assay [2]; 93.5 µM (inactive) in assay [3]; 30.1 µM in assay [4]; 19.6 µM (inactive) in assay [20]; > 100 µM (inactive) in assay [5]; 62.1 µM (inactive) in assay [6]. The GI50 is 40.6 µM (inactive) in [7]; 28.6 µM (inactive) in assay [8]; 1.93 µM (inactive) in assay [9]; 8.2 µM (inactive) in assay [10]; > 100 µM (inactive) in assay [11]; 63.5 µM (inactive) in assay [12]. Further, the GI50 in assay [13] was 28.4 µM (inactive); in [14], 12 µM (inactive); in assay [15] it was > 100 µM (inactive); in assay [16], 40.3 µM (inactive); in [17], 0.0219 µM (active); in assay [18], 4.54 µM (inactive). Also, the GI50 in assay [19] was 11.6 µM (inactive).

`Oc1c(N2CCOCC2)cc(-c2cc(N3CCOCC3)c(O)c3ccccc23)c2ccccc12`: the GI50 in assay [2] is 1.77 µM (inactive); in assay [3], 2.16 µM (inactive); in [4], 2.31 µM; in [5], 1.69 µM (inactive); in assay [6] it was 1.56 µM (inactive); in [7], 2.12 µM (inactive). The GI50 is 1.38 µM (inactive) in assay [8]; 1.71 µM (inactive) in [9]; 0.486 µM (active) in assay [10]; 2.83 µM (inactive) in [11]; 3.33 µM (inactive) in assay [12]; 1.75 µM (inactive) in assay [13]. In addition, the GI50 in assay [14] is 0.422 µM (active); in assay [15], 6.47 µM (inactive); in assay [16], 3.61 µM (inactive); in assay [17] it was 2.26 µM (inactive); in assay [18], 0.659 µM (active); in assay [19], 12.8 µM (inactive).

As to `CCCCCCc1cc2cc(-c3csc(-c4ccc(OC)cc4)n3)c(=O)oc2cc1O`, the GI50 in assay [2] is 2.36 µM (inactive); in [3], 7.19 µM (inactive); in [4] it was 17.1 µM; in assay [20] it was 33.3 µM (inactive); in assay [5] it was 14.7 µM (inactive); in [6], 12.2 µM (inactive). Besides, the GI50 in assay [7] was 17.8 µM (inactive); in [8] it was 4.9 µM (inactive); in [9], 24.3 µM (inactive); in [11], 12.2 µM (inactive); in [12], 4.79 µM (inactive); in [13], 10.2 µM (inactive). The GI50 in assay [14] is 9.06 µM (inactive); in assay [15], 15.2 µM (inactive); in [16], 9.95 µM (inactive); in assay [17], 14.7 µM (inactive); in assay [18], 19.6 µM (inactive); in [19], 7.82 µM (inactive).

For the molecule `CCOC(=O)C1=[N+]([O-])OC2=C(O)CCCC21` (stereo not drawn), the GI50 in assay [1] was > 100 µM (inactive); in assay [2] it was > 100 µM (inactive); in assay [3] it was > 100 µM (inactive); in [4] it was over 100 µM; in assay [5], > 100 µM (inactive); in assay [6] it was > 100 µM (inactive). Also, the GI50 in assay [7], in [8], in [9], in assay [10], in assay [11] and in assay [12] was > 100 µM (inactive) each time. In addition, the GI50 in assay [13], in assay [14], in assay [15], in assay [16], in assay [17] and in assay [18] was > 100 µM (inactive) throughout. The GI50 in assay [19] is > 100 µM (inactive).

Take `CC(=O)N1N=C(c2cc(C)ccc2O)CC1c1cccc(Cl)c1` (stereo not drawn): the GI50 in assay [2] was 33.3 µM (inactive); in assay [3], 13.8 µM (inactive); in assay [4], 1.95 µM; in assay [20], 8.53 µM (inactive); in [5] it was 22.3 µM (inactive); in assay [6] it was 15.1 µM (inactive). In addition, the GI50 is 5.79 µM (inactive) in assay [7]; 1.6 µM (inactive) in [8]; 4.26 µM (inactive) in assay [9]; 6.93 µM (inactive) in [10]; 8.85 µM (inactive) in assay [11]; 8.55 µM (inactive) in assay [12]. Also, the GI50 is 11.7 µM (inactive) in assay [14]; 9.1 µM (inactive) in [15]; 6.08 µM (inactive) in assay [16]; 1.83 µM (inactive) in assay [18]; 23.1 µM (inactive) in assay [19].

As for `CC1(C)CCC2=C(O1)c1ccccc1C(=O)C2=O` [LAPACHONE], the GI50 in assay [1] is 5.42 µM (inactive); in assay [2], 0.721 µM (active); in assay [3], 0.277 µM (active); in [5], 0.647 µM (active); in [6] it was 0.316 µM (active); in assay [7], 0.455 µM (active). Further, the GI50 in assay [8] was 2.07 µM (inactive); in [9] it was 0.708 µM (active); in assay [10], 0.427 µM (active); in assay [12], 0.682 µM (active); in [14] it was 0.272 µM (active); in assay [15] it was 1.85 µM (inactive). Moreover, the GI50 is 0.358 µM (active) in assay [17], 0.215 µM (active) in assay [18] and 0.411 µM (active) in assay [19].
